System: onychomycosis
Experiment: not given
Conditions: after nail removal; cited from earlier work

| SMILES | Effectiveness in topically treating onychomycosis |
| --- | --- |
| CC(=O)N1CCN(c2ccc(OCC3COC(Cn4ccnc4)(c4ccc(Cl)cc4Cl)O3)cc2)CC1 (stereo not drawn) [ketoconazole] | effective |
| Clc1ccc(COC(Cn2ccnc2)c2ccc(Cl)cc2Cl)c(Cl)c1 (stereo not drawn) [miconazole] | effective |

System: not listed separately
Experiment: pH measurement of acidifiers with a glass electrode
Format: physicochemical
Conditions: after 1 min
Description: Apparent pH is the pH reading measured by a glass pH electrode. The preferred acidifiers are 37% HCl, 10% HCl, sulfuric acid, o-phosphoric acid, nitric acid, acetic acid, L (+)-lactic acid, salicylic acid, and glycolic acid. The particularly preferred acidifiers are 37% HCl and 10% HCl. If the total weight of the acidified composition is 100 parts, the acidifier should be about 0.05 to about 50% w/w (w/w=weight/weight), preferably, from about 0.1% to about 10%, more preferably form about 0.5% to about 5%.

| pH reading | SMILES |
| --- | --- |
| -0.19 to -0.28 | CC(=O)O [Acetic acid] |
| 0.43 | O=C(O)CO [Glycolic Acid] |
| 0.31 | C[C@H](O)C(=O)O [L(+)-lactic acid] |

| SMILES | pH reading |
| --- | --- |
| O=C(O)c1ccccc1O [Salicylic acid] | 2.92 |
